As a reminder, the half-life is how long it takes for the measured level to halve.

Here are results for one molecule from patent publication US8337809B2, “Charge-assembled capsules for phototherapy” (William Marsh Rice University, priority 2006, dated 2012).

Series [1] in a line: Laser-induced photothermal experiments (808 nm NIR diode laser). Here is the method: (§1) Washed ICG-NACs (0.5 mL, ˜1×10^7 particles/mL, ˜1×10^9 ICG molecules/particles, 0.007 wt % ICG of suspension) were suspended in PBS solution and placed in the wells of a 24 well polystyrene culture dish. Control samples were a 0.007 wt % PBS solution of ICG and PBS solution. Containing 0.5 mL of aqueous suspension or solution, each well was irradiated with a continuous-wave near-infrared diode laser (Coherent FAP-System, 54 W, λ=808 nm, irradiance (Io)) 155 W/cm^2) for various time intervals. The laser beam impinged on the sample with a 6.66 mm diameter. During irradiation, the sample temperature was monitored with a K-type thermocouple (bead diameter) 0.003 in., Omega Engineering) located 1 mm outside the laser spot and recorded using LabVIEW data acquisition software (National Instruments, Austin, Tex.). For the SEM study, 5 identical batches were prepared and irradiated for various times. Each sample was then washed twice with Nanopure water and dried at room temperature for SEM imaging. Viability Assessment of Cells Exposed to ICG-NACs. […] Cell survival was quantified using the Live/Dead viability assay (Molecular Probes). Dead cells were differentiated from live cells through fluorescence microscopy, as the former emitted red fluorescence (from the ethidium homodimer-1 dye precursor) and the latter emitted green fluorescence (from the calcein acetoxymethyl ester dye precursor). […]

Series [2] can be described thus: ICG leakage measurements / thermal degradation in PBS. Format: physicochemical. The conditions noted are these: 37° C. Here is the method: The synthesis of ICG-NACs with ICG/PAH=0.04 was scaled up by 10 times. After washing with PBS solution, the precipitate was dispersed in PBS solution (2.6 mL) and split into 0.25 mL aliquots kept under constant shaking in the dark at either 23 or 37° C. Because of the long time scale of this study and the sensitivity of ICG to degradation in water, the suspension fluid was not analyzed for released ICG. Instead, the ICG contained within the ICG-NACs was quantified by inducing the disassembly of the ICG-NACs and immediately measuring the ICG concentration. Specifically, after a given aging time, each aliquot was centrifuged for 30 min and the concentrated precipitate suspension ([…]) was combined with 2.5 mL HNO3 solution (2 wt %). The resulting clear solution was then analyzed through UV-vis spectroscopy. As control samples, fresh ICG solution in PBS was prepared with a concentration close to that of the disassembled NAC solution (˜0.04 mg/mL) and incubated at 23 and 37° C. The samples were kept in the dark during aging.
The ICG content of ICG-NACs (ICG/amine ratio=0.04) was quantified as a function of time by dis-assembling the capsules and measuring the absorbance of free ICG concentration at 780 nm (FIG. 9). For ICG-NACs at 23° C., more than 96% of ICG was retained. […]

Series [3] deals with fibroblasts (rat maxillary incisor pulp cells (RPC-C2A)). The series can be described thus: Viability assessment of cells exposed to ICG-NACs (Live/Dead viability assay). In kind it is cell-based. Here is the method:
as §1

The conditions of series [4]: cited from earlier work.
For series [5], the system named is animal subjects. The conditions noted are these: cited from earlier work.
For series [6] the following is noted: ICG concentration 0.001 mg/ml at 42° C.; cited from earlier work.

`CC1(C)C(/C=C/C=C/C=C/C=C2\N(CCCCS(=O)(=O)O)c3ccc4ccccc4c3C2(C)C)=[N+](CCCCS(=O)(=O)[O-])c2ccc3ccccc3c21` [ICG, indocyanine green]: the “photothermal heating response” value in series [1] (constant 808 nm irradiation, compared with ICG-NACs) is reported as “very similar heating curve”. Besides, the “irradiation/cooling cycles in which the target temperature was reached” value in series [1] (irradiated to ~51-54° C. (ICG-NACs 55° C.), cooled to 30° C., repeated, photodegradation stability) worked out at 4 cycles. In series [2] (PBS, dark, capsules ICG/amine ratio=0.04, free ICG ~0.04 mg/mL), the “ICG lost at the end of 8 hr” value is reported as roughly 35%. Further, in series [2] (ICG solution in PBS, free ICG in PBS, calculated), the half-life is 19 h. In addition, in series [3], the “toxicity to fibroblast cells” value is on record as “non-toxic”. For the same molecule, the “half-life of rapid clearance from the circulatory system” value in series [4] (initial fast phase) is 3 to 4 min. Besides, the “half-life of much slower clearance rate” value in series [4] (second, slower phase) was no less than 1 h. Moreover, in series [5], the “semilethal dose LD50” value is 50 to 80 mg/kg. Besides, the “published half-life of ICG” value in series [6] was roughly 10 h.
